Assay results taken from patent US8906914B2, “Ethylene diamine modulators of fatty acid hydrolase” (priority 2009, dated 2014).
Where a name gives a salt, the structure may show the parent alone.

Tests used:
FAAH = target: T1, FAAH (Homo sapiens, UniProt O00519); experiment: Human FAAH assay (Assay Method 1), 3H-anandamide hydrolysis in cell homogenate; format: biochemical; design: expressed in transfected cells; alternatively T84 frozen cell pellets (endogenous FAAH)
T1 sequence (O00519 1-579): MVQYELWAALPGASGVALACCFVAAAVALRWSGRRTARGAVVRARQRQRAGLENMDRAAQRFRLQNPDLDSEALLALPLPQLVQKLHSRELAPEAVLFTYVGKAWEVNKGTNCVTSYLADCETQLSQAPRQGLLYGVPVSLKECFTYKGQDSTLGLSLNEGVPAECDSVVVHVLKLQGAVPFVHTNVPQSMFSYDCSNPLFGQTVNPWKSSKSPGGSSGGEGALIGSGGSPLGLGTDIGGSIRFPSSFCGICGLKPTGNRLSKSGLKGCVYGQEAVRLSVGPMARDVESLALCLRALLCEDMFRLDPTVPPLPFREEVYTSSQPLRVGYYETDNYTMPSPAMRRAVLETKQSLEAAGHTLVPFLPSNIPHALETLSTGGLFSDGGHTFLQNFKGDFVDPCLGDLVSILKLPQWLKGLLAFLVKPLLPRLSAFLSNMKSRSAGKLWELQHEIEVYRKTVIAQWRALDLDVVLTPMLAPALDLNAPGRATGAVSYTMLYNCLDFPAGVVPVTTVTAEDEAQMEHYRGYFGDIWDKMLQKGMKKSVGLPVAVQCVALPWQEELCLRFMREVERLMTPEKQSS
Experimental: A. Transfection of Cells with Human FAAH
(§1) A 10-cm tissue culture dish with a confluent monolayer of SK-N-MC cells was split 2 days (d) prior to transfection. Using sterile technique, the media was removed and the cells were detached from the dish by the addition of trypsin. One fifth of the cells were then placed onto a new 10-cm dish. Cells were grown in a 37° C. incubator with 5% CO2 in Minimal Essential Media Eagle with 10% Fetal Bovine Serum. After 2 d, cells were approximately 80% confluent. These cells were removed from the dish with trypsin and pelleted in a clinical centrifuge. The pellet was re-suspended in 400 μL complete media and transferred to an electroporation cuvette with a 0.4 cm gap between the electrodes. Supercoiled human FAAH cDNA (1 μg) was added to the cells and mixed. The voltage for the electroporation was set at 0.25 kV, and the capacitance was set at 960 μF. After electroporation, the cells were diluted into complete media (10 mL) and plated onto four 10-cm dishes. Because of the variability in the efficiency of electroporation, four different concentrations of cells were plated. The ratios used were 1:20, 1:10, and 1:5, with the remainder of the cells being added to the fourth dish. The cells were allowed to recover for 24 h before adding the selection media (complete media with 600 μg/mL G418). After 10 d, dishes were analyzed for surviving colonies of cells. Dishes with well-isolated colonies were used. Cells from individual colonies were isolated and tested.
(§2) The assay mixture consisted of 50 μL of the cell homogenate, 10 μL of the test compound, and 40 μL of anandamide [1-3H-ethanolamine] (^3H-AEA, Perkin-Elmer, 10.3 Ci/mmol), which was added last, for a final tracer concentration of 80 nM. The reaction mixture was incubated at rt for 1 h. During the incubation, 96-well Multiscreen filter plates (catalog number MAFCNOB50; Millipore, Bedford, Mass., USA) were loaded with 25 μL of activated charcoal (Multiscreen column loader, catalog number MACL09625, Millipore) and washed once with 100 μL of MeOH. Also during the incubation, 96-well DYNEX MicroLite plates (catalog number NL510410) were loaded with 100 μL of MicroScint40 (catalog number 6013641, Packard Bioscience, Meriden, Conn., USA). After the 1 h incubation, 60 μL of the reaction mixture were transferred to the charcoal plates, which were then assembled on top of the DYNEX plates using Centrifuge Alignment Frames (catalog number MACF09604, Millipore). The unbound labeled ethanolamine was centrifuged through to the bottom plate (5 min at 2000 rpm), which was preloaded with the scintillant, as described above. The plates were sealed and left at rt for 1 h before counting on a Hewlett Packard TopCount.
(§3) Where activity is shown as greater than (>) a particular value, the value is the solubility limit of the compound in the assay medium or the highest concentration tested in the assay.

Rat FAAH-1 = target: T2, Rat FAAH-1 (Rattus norvegicus, UniProt P97612); experiment: Rat FAAH-1 assay (Assay Method 2), 3H-anandamide hydrolysis in cell homogenate; format: biochemical
T2 construct: expressed in transfected cells
T2 sequence (P97612 1-579): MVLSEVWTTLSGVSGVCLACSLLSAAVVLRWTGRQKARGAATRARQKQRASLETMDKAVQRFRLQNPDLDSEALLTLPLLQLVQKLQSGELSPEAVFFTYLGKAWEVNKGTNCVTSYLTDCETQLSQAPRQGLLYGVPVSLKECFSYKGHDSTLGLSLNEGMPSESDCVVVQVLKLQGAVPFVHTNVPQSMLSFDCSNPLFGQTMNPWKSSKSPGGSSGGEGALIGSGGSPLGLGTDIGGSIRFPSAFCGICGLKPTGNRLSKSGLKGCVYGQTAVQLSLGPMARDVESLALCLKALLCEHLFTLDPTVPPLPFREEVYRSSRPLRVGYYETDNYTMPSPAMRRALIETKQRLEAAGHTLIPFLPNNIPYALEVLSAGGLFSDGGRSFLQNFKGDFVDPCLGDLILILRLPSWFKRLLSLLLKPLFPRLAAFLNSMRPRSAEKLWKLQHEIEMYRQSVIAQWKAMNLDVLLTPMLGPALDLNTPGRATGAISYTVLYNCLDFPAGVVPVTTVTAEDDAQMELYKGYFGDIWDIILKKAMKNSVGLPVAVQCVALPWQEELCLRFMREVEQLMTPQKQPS
Experimental: A. Transfection of Cells with Rat FAAH-1
as §1, with “rat” for “human”
as §2, with “[1-^3H-ethanolamine]” for “[1-3H-ethanolamine]”
as §3

| SMILES | IC50 (FAAH) [nM] | IC50 (Rat FAAH-1) [nM] |
| --- | --- | --- |
| N[C@@H](CNc1cc(-c2ccc(Cl)c(Cl)c2)ncn1)c1ccccc1 [Example 16, (1R)—N^2-[6-(3,4-Dichlorophenyl)pyrimidin-4-yl]-1-phenylethane-1,2-diamine hydrochloride acid salt] | 90 | 500 |
| N[C@@H](CNc1cc(-c2ccc(Cl)c(C(F)(F)F)c2)ncn1)c1ccccc1 [Example 17, (1R)—N^2-{6-[4-Chloro-3-(trifluoromethyl)phenyl]pyrimidin-4-yl}-1-phenylethane-1,2-diamine hydrochloride acid salt] | 250 | 900 |
| N[C@@H](CNc1cc(-c2cccc(OC(F)(F)F)c2)ncn1)c1ccccc1 [Example 18, (1R)-1-Phenyl-N^2-{6-[3-(trifluoromethoxy)phenyl]pyrimidin-4-yl}ethane-1,2-diamine hydrochloride acid salt] | 920 | > 10000 |
| CCOc1ccc(-c2cc(NC[C@H](N)c3ccccc3)ncn2)cc1 [Example 19, (1R)—N^2-[6-(4-Ethoxyphenyl)pyrimidin-4-yl]-1-phenylethane-1,2-diamine hydrochloride acid salt] | 70 | 1000 |
| N[C@@H](CNc1cc(-c2ccc(OCC(F)(F)F)cc2)ncn1)c1ccccc1 [Example 20, (1R)-1-Phenyl-N^2-{6-[4-(2,2,2-trifluoroethoxy)phenyl]pyrimidin-4-yl}ethane-1,2-diamine hydrochloride acid salt] | 130 | 2000 |
| N[C@@H](CNc1cc(-c2ccc(OCC(F)(F)F)c(F)c2)ncn1)c1ccccc1 [Example 21, (1R)—N^2-{6-[3-Fluoro-4-(2,2,2-trifluoroethoxy)phenyl]pyrimidin-4-yl}-1-phenylethane-1,2-diamine hydrochloride acid salt] | 77 | 675 |
| CCSc1ccc(-c2cc(NC[C@H](N)c3ccccc3)ncn2)cc1 [Example 22, (1R)—N^2-{6-[4-(Ethylsulfanyl)phenyl]pyrimidin-4-yl}-1-phenylethane-1,2-diamine hydrochloride acid salt] | 7 | 240 |
| CN(C)S(=O)(=O)c1ccc(-c2cc(NC[C@H](N)c3ccccc3)ncn2)cc1 [Example 23, 4-(6-{[(2R)-2-Amino-2-phenylethyl]amino}pyrimidin-4-yl)-N,N-dimethylbenzenesulfonamide hydrochloride acid salt] | 113 | 1600 |
| O=C(N[C@@H](CNc1cc(-c2ccc(C(F)(F)F)c(Cl)c2)ncn1)c1ccccc1)C(F)(F)F [Example 26, N-[(1R)-2-({6-[3-chloro-4-(trifluoromethyl)phenyl]pyrimidin-4-yl}amino)-1-phenylethyl]-2,2,2-trifluoroacetamide] | 1600 | > 10000 |

Second part, the molecule after the results:

| IC50 (FAAH) [nM] | IC50 (Rat FAAH-1) [nM] | SMILES |
| --- | --- | --- |
| 270 | 1000 | N[C@@H](CNc1cc(-c2ccc3c(c2)OC(F)(F)O3)ncn1)c1ccccc1 [Example 24, (1R)—N^2-[6-(2,2-Difluoro-1,3-benzodioxol-5-yl)pyrimidin-4-yl]-1-phenylethane-1,2-diamine hydrochloride acid salt] |
| 80 | 370 | N[C@@H](CNc1cc(-c2cc3cc(OC(F)(F)F)ccc3s2)ncn1)c1ccccc1 [Example 25, (1R)-1-Phenyl-N^2-{6-[5-(trifluoromethoxy)-1-benzothiophen-2-yl]pyrimidin-4-yl}ethane-1,2-diamine hydrochloride acid salt] |
| 33 | 60 | N[C@@H](CNc1cc(-c2ccc(C(F)(F)F)c(Cl)c2)ncn1)c1ccc(F)cc1 [Example 27, (1R)—N^2-[6-(3-Chloro-4-trifluoromethyl-phenyl)-pyrimidin-4-yl]-1-(4-fluoro-phenyl)-ethane-1,2-diamine] |
| 600 | 900 | N[C@H](CNc1cc(-c2ccc(C(F)(F)F)c(Cl)c2)ncn1)c1ccc(F)cc1 [Example 28, (1S)—N^2-[6-(3-Chloro-4-trifluoromethyl-phenyl)-pyrimidin-4-yl]-1-(4-fluoro-phenyl)-ethane-1,2-diamine] |
| 1400 | 1700 | N[C@H](CNc1cc(-c2ccc(C(F)(F)F)c(Cl)c2)ncn1)c1ccc(C(F)(F)F)cc1 [Example 29, (1S)—N^2-[6-(3-Chloro-4-trifluoromethyl-phenyl)-pyrimidin-4-yl]-1-(4-trifluoromethyl-phenyl)-ethane-1,2-diamine] |
| 160 | 52 | N[C@@H](CNc1cc(-c2ccc(C(F)(F)F)c(Cl)c2)ncn1)c1ccc(C(F)(F)F)cc1 [Example 30, (1R)—N^2-[6-(3-Chloro-4-trifluoromethyl-phenyl)-pyrimidin-4-yl]-1-(4-trifluoromethyl-phenyl)-ethane-1,2-diamine] |
